Laboratory results reported in ChEMBL document CHEMBL4417640, “Inhibitors of mtor-deptor interactions and methods of use thereof” (2018).
Active and inactive are the calls of the source. The calls are words filed in the database; no cut-off is given here.

Legend:
[1] = system: MM1.S; assay: Cytotoxicity in human MM1S cells incubated for 48 hrs by MTT assay; assay type: functional, cell-based
[2] = system: RPMI-8226; assay: Toxicity in human RPMI8226 cells at 0.05 to 0.2 uM incubated for 6 hrs; assay type: cell-based; settings: rpmi-8226, 6 h
[3] = system: RPMI-8226; assay: Toxicity in human RPMI8226 cells at 1 to 2 uM incubated for 6 hrs; assay type: cell-based; settings: rpmi-8226, 6 h
[4] = system: RPMI-8226; assay: Induction of p70 degradation in human RPMI8226 cells at 1 to 2 uM incubated for 6 hrs by Western blot analysis; assay type: cell-based; settings: rpmi-8226, 6 h
[5] = system: RPMI-8226; assay: Toxicity in human RPMI8226 cells at 0.5 uM incubated for 6 hrs; assay type: cell-based; settings: rpmi-8226, 6 h
[6] = system: RPMI-8226; assay: Induction of apoptosis in human RPMI8226 cells at 0.12 to 2 uM by flow cytometry; assay type: functional, cell-based
[7] = Therapeutic index, ratio of IC50 for cytotoxicity against human PBL cells incubated for 48 hrs by MTT assay to IC50 for cytotoxicity against human MM1S cells incubated for 48 hrs by MTT assay; assay type: toxicity, cell-based; settings: PBL cells versus MM1S cells, read-out: Ratio IC50
[8] = biological target: T1, DEP domain-containing mTOR-interacting protein (Homo sapiens, UniProt Q8TB45); assay: Inhibition of DEPTOR in human RPMI8226 cells assessed as increase in mTOR kinase activity by measuring induction of p21 expression at 0.25 to 1 uM uM by Western blot analysis; assay type: cell-based
[9] = biological target: T1, DEP domain-containing mTOR-interacting protein; assay: Inhibition of DEPTOR in human RPMI8226 cells assessed as increase in mTOR kinase activity by measuring induction of p21 expression at 0.5 to 2 uM uM by Western blot analysis; assay type: cell-based
[10] = system: MM1.S; assay: Cytotoxicity in human MM1S cells at 0.12 to 1 uM incubated for 48 hrs in presence of RAPTOR siRNA by MTT assay; assay type: functional, cell-based
[11] = biological target: T1, DEP domain-containing mTOR-interacting protein; assay: Inhibition of DEPTOR in human RPMI8226 cells assessed as induction of mTORC1 activation at 0.5 uM incubated for 6 hrs co-immunoprecipitation assay; assay type: cell-based
[12] = Toxicity in normal hematopoietic colony forming cells (unknown origin) assessed as reduction in colony formation at 0.5 uM
[13] = biological target: DEPTOR/mTOR (Homo sapiens) (UniProt P42345+Q8TB45); assay: Inhibition of DEPTOR-mTOR interaction (unknown origin) by yeast-2-hybrid screen based assay; assay type: protein assay
[14] = system: OPM-2; assay: Induction of apoptosis in human OPM2 cells at 0.12 to 2 uM incubated for 48 hrs incubated for 48 hrs by flow cytometry; assay type: functional, cell-based
[15] = system: NCI-H929; assay: Induction of apoptosis in human NCI-H929 cells at 0.12 to 2 uM incubated for 48 hrs by flow cytometry; assay type: functional, cell-based
[16] = Toxicity in normal hematopoietic colony forming cells (unknown origin) assessed as reduction in colony formation at 10 uM
[17] = biological target: T1, DEP domain-containing mTOR-interacting protein; assay: Inhibition of DEPTOR in human RPMI8226 cells assessed as induction of mTORC1 activation at 1 uM incubated for 6 hrs co-immunoprecipitation assay; assay type: cell-based
[18] = biological target: T1, DEP domain-containing mTOR-interacting protein; assay: Inhibition of DEPTOR in human RPMI8226 cells assessed as increase in mTOR kinase activity by measuring induction of p70 phosphorylation incubated for 6 hrs by Western blot analysis; assay type: cell-based
[19] = system: OPM-2; assay: Cytotoxicity in human OPM2 cells incubated for 48 hrs by MTT assay; assay type: functional, cell-based; settings: OPM-2, 48 h
[20] = system: RPMI-8226; assay: Antitumor activity against human RPMI8226 cells xenografted in mouse assessed as reduction in tumor volume at 20 mg/kg, ip dosed daily for 4 days; assay type: functional, organism-based
[21] = system: RPMI-8226; assay: Cytotoxicity in human RPMI8226 cells transfected with DEPTOR at 0.25 to 1 uM incubated for 48 hrs by MTT assay; assay type: functional, cell-based
[22] = system: RPMI-8226; assay: Toxicity in human RPMI8226 cells xenografted in mouse assessed as effect on hematocrit at 20 mg/kg, ip dosed daily for 4 days; assay type: organism-based; settings: in vivo, 96 h
[23] = system: MM1.S; assay: Cytotoxicity in human MM1S cells at 0.25 to 2 uM incubated for 48 hrs in presence of RAPTOR siRNA by MTT assay; assay type: functional, cell-based
[24] = system: RPMI-8226; assay: Toxicity in human RPMI8226 cells xenografted in mouse assessed as effect on platelet count at 20 mg/kg, ip dosed daily for 4 days; assay type: organism-based; settings: in vivo, 96 h
[25] = system: RPMI-8226; assay: Induction of apoptosis in human RPMI8226 cells transfected with DEPTOR at 0.12 to 1 uM by flow cytometry; assay type: functional, cell-based
[26] = biological target: T1, DEP domain-containing mTOR-interacting protein; assay: Induction of proteasome-dependent DEPTOR degradation in human RPMI8226 cells at 0.5 to 2 uM; assay type: cell-based
[27] = system: RPMI-8226; assay: Toxicity in human RPMI8226 cells xenografted in mouse assessed as effect on hemoglobin concentration at 20 mg/kg, ip dosed daily for 4 days; assay type: organism-based; settings: in vivo, 96 h
[28] = system: RPMI-8226; assay: Toxicity in human RPMI8226 cells xenografted in mouse assessed as effect on normal WBC counts at 20 mg/kg, ip dosed daily for 4 days; assay type: organism-based; settings: in vivo, 96 h

T1 sequence (Q8TB45 whole entry, the tested form may be a part): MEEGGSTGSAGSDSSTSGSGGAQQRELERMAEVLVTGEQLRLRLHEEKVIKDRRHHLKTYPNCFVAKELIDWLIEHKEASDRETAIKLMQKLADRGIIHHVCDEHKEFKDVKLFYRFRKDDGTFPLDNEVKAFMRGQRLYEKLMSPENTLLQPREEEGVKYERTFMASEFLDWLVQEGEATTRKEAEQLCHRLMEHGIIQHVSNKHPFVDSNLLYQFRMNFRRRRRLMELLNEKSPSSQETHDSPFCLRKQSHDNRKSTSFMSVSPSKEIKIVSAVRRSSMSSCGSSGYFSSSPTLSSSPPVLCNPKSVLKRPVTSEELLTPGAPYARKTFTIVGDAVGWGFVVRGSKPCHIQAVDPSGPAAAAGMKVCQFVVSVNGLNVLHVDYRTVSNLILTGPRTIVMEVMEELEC
Chain of DEPTOR/mTOR (Homo sapiens) (Q8TB45 whole entry, looked up, other chains not shown): as the sequence (Q8TB45 whole entry, the tested form may be a part) above

With ClC1=C(Cl)C(Cl)=C(Cl)C1=NN(c1ccccc1)c1ccccc1 the IC50 [1] was > 3000 nM.

For Cc1cccc(NN=C2C(Cl)=C(Cl)C(Cl)=C2Cl)c1, the IC50 [1] was > 3000 nM.

For O=C(NN=C1C(Cl)=C(Cl)C(Cl)=C1Cl)c1ccccc1, the Activity [2] was “Non-Toxic”, the Activity [3] was “Toxic” and the Activity [4] was “Toxic”. For the same compound, the Activity [5] was “Toxic”.

In the case of NN=C(c1ccccc1)c1ccccc1, the IC50 [1] is reported as > 5000 nM.

For CC(C)(C)C(=O)NN=C1C(Cl)=C(Cl)C(Cl)=C1Cl, the Activity [6] was “Active”, the selectivity ratio at 48 h [7] was 14 and the inhibition [8] was “Active”.

In the case of CC(C)(C)OC(=O)NN=C1c2ccccc2-c2ccccc21, the IC50 [1] is reported as > 5000 nM.

For CC(C)(C)OC(=O)NN=C1C(Cl)=C(Cl)C(Cl)=C1Cl, the inhibition [9] was “Active”, the Activity [10] was “inactive” and the “mTORC1 activation (active/not active)” value [11] was “inactive”. The Activity [6] was “Active” and the selectivity ratio at 48 h [7] was 45.5.

In the case of CN(C)c1ccc(/C=C2\C=Cc3ccccc32)cc1F, the Activity [12] is reported as “Toxic” and the “inhibition activity call (active/inactive)” value [13] is reported as “Active”.

In the case of O=C(c1ccc(F)cc1)N(N=C1C(Cl)=C(Cl)C(Cl)=C1Cl)C(=O)c1ccc(F)cc1, the inhibition [9] is reported as “Active”, the Activity [6] is reported as “Active” and the selectivity ratio at 48 h [7] is reported as 10.

For Fc1cccc(NN=C2c3ccccc3-c3ccccc32)c1, the IC50 [1] was > 5000 nM.

For Fc1ccc(NN=C2C(Cl)=C(Cl)C(Cl)=C2Cl)cc1, the inhibition [9] was “Active”, the Activity [10] was “inactive” and the “mTORC1 activation (active/not active)” value [11] was “inactive”. It also gave a selectivity ratio at 48 h [7] of 33.

In the case of CCCCCCCCNS(=O)(=O)c1ccccc1, the “inhibition activity call (active/inactive)” value [13] is reported as “Active”.

In the case of NN=C1C(Cl)=C(Cl)C(Cl)=C1Cl, the Activity [14] is reported as “Active”, the Activity [15] is reported as “Active” and the “mTORC1 activation (active/not active)” value [11] is reported as “inactive”. For the same compound, the Activity [16] was “Toxic”, the inhibition [17] was “Active” and the Activity [6] was “Active”. The IC50 [18] was 1300 nM, the selectivity ratio at 48 h [7] was 14.3 and the IC50 [19] was 4000 nM. The “inhibition activity call (active/inactive)” value [13] was “Active”, the Activity [20] was “Active” and the IC50 [1] was 3000 to 3300 nM.

For CC(C)(C)NN=C1C(Cl)=C(Cl)C(Cl)=C1Cl, the IC50 [18] was > 5000 nM and the IC50 [1] was > 3000 nM.

For Fc1ccccc1NN=C1C(Cl)=C(Cl)C(Cl)=C1Cl, the IC50 [1] was > 3000 nM.

For NN=c1c2ccccc2oc2ccccc12, the IC50 [1] was > 5000 nM.

In the case of ClC1=C(Cl)C(Cl)=C(Cl)C1=NNC1CCCCC1, the IC50 [18] is reported as > 5000 nM and the IC50 [1] is reported as > 3000 nM.

With CN(C)N=C1C(Cl)=C(Cl)C(Cl)=C1Cl the IC50 [1] was > 3000 nM.

With O=C(O)c1ccc2c(c1)CCC2 the “inhibition activity call (active/inactive)” value [13] was “Active”.

For COc1cccc(NN=C2C(Cl)=C(Cl)C(Cl)=C2Cl)c1, the IC50 [1] was > 3000 nM.

For FC(F)(F)c1cccc(NN=C2C(Cl)=C(Cl)C(Cl)=C2Cl)c1, the Activity [14] was “Active”, the Activity [21] was “inactive” and the Activity [22] was “Non-Toxic”. The Activity [23] was “inactive”, the Activity [24] was “Non-Toxic” and the Activity [15] was “Active”. The “mTORC1 activation (active/not active)” value [11] was “Active”, the Activity [6] was “Active” and the Activity [25] was “inactive”. For the same compound, the selectivity ratio at 48 h [7] was 136, the Activity [26] was “Active” and the IC50 [19] was 300 nM. The Activity [20] was “Active”, the Activity [27] was “Non-Toxic” and the Activity [28] was “Toxic”. For the same compound, the inhibition [8] was “Active”.
